According to patent publication US20250197357A1, “PPARG INVERSE AGONISTS AND USES THEREOF” (Flare Therapeutics Inc., priority 2022, published 2025):
Blank lines part the entries; values can stand above or below the compound they belong to.

Tests used:
[1] = molecular target: T1, PPARG/RXRA LBD heterodimer (Homo sapiens, UniProt P37231); test: PPARγ-MED1 blockade assay (TR-FRET); format: binding; conditions: MED1 LxxLL peptide, 80 nM Rosiglitazone, 3 hours
T1 construct: His-TEV-Q203-Y477; Uniprot ID P37231-2; made in house; host or cells: E. coli
T1 sequence (P37231 203-477 isoform P37231-2): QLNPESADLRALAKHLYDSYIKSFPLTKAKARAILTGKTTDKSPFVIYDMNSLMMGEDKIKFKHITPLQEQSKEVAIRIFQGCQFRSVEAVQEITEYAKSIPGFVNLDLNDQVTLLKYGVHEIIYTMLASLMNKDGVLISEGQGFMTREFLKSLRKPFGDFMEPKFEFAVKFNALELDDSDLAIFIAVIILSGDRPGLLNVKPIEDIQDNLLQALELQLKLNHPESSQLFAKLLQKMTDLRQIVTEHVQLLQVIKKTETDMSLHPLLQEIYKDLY
T1 sequence (P19793 228-462 partner limits assumed): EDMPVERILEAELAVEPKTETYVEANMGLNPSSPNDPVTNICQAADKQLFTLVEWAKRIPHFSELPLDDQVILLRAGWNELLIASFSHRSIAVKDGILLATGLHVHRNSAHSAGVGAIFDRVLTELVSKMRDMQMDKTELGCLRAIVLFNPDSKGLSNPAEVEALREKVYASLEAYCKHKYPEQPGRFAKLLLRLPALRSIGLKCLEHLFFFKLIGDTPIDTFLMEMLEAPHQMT
Procedure: Compound potency (IC50) and maximal extent of MED1 repulsion to PPARG were assessed a TR-FRET binding assay measuring association of a biotinylated MED1 LxxLL peptide (Biotin—[…]-amide) to PPARG/RXRA LBD heterodimer. Specifically, a 20 microliters of TR-FRET master mix consisting of 2 nM WT PPARG LBD (e. coli expressed, His-TEV-Q203-Y477; Uniprot ID P37231-2), 2 nM WT RXRA LBD (e. coli expressed, Flag-TEV-E228-T462; […]. Mixtures were incubated for 3 hours and read in an EnVision plate reader (Perkin Elmer) with Ex/Em 615/665. To determine the potency (IC50) and extent of MED1 repulsion, TR-FRET ratios were normalized to the average ratio of DMSO control wells (0%) and to the average minimum ratio for positive control compound (GW9662 (2-chloro-5-nitrobenzanilide); defined as 100%) in CDD Vault and analyzed using the Levenberg-Marquardt algorithm.

[2] = tested on: ANGPTL4, a PPARG target gene, in HT1197 (RXRA S427F mutation) cells; test: Bladder cancer pharmacodynamic assay (HT1197 cell assay, qPCR of PPARG target genes); format: cell-based; conditions: Homo sapiens, 100 nM compound, 24 hours, relative to DMSO control
Procedure: 5637 (PPARG amplified) and HT1197 (RXRA S427F mutation) cells were used for assessment of modulation of PPARG target genes using quantitative PCR. Cells were treated for 24 hours with PPARG inverse agonists prior to analysis of FABP4 (IDT, Cat: Hs.PT 58.20106818) and ANGPTL4 (IDT, Cat: Hs.PT 58.25480012) expression, with expression of the housekeeping gene TBP (IDT, Cat: Hs.PT 58v.39858774) used to normalize expression across samples. Quantitative PCR was performed using an ABI QuantStudio 7 Flex Reaction system. Data were analyzed and reported relative to DMSO control using the comparative Ct method (ΔΔCt).

[3] = molecular target: T2, PPARG/RXRA LBD heterodimer (Homo sapiens, UniProt P37231); test: PPARγ-NCOR1 recruitment assay (TR-FRET); format: binding; conditions: NCOR1 ID2 peptide, 80 nM Rosiglitazone, 3 hours, read-out: PPARG - NCOR recruitment assay EC50
T2 construct: 2 nM WT PPARG LBD (e. coli expressed, His-TEV-Q203-Y477); fused on or other part: N-terminal His tag with TEV site on the PPARG LBD
Procedure: Compound potency (EC50) and maximal extent of NCOR1 recruitment to PPARG were assessed a TR-FRET binding assay measuring association of a biotinylated NCOR1 ID2 peptide (Biotin-[…]-amide) to PPARG/RXRA LBD heterodimer. Specifically, a 20 microliters of TR-FRET master mix consisting of 2 nM WT PPARG LBD (e. coli expressed, His-TEV-Q203-Y477; Uniprot ID P37231-2), 2 nM WT RXRA LBD or mutant S427F RXRA LBD (e. coli expressed, Flag-TEV-E228-T462; […]. Mixtures were incubated for 3 hours and read in an EnVision plate reader (Perkin Elmer) with Ex/Em 615/665. To determine the potency (EC50) and extent of NCOR1 recruitment, TR-FRET ratios were normalized to the average ratio of DMSO control wells (0%) and to the average maximum ratio for positive control compound (T0070907 (2-chloro-5-nitro-N-4-pyridinyl-benzamide); defined as 100%) in CDD Vault and analyzed using the Levenberg-Marquardt algorithm.
T2 sequence (O75376 2251-2273 limits assumed, one chain of several, further chain): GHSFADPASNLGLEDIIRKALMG

Structure (SMILES): Cc1ccc(-c2c(F)cc(NC(=O)c3cc(C#N)ccc3S(C)(=O)=O)cc2F)cn1 [Example 4, 5-cyano-N-(3,5-difluoro-4-(6-methylpyridin-3-yl)phenyl)-2-(methylsulfonyl) benzamide]
EC50 [1]: 0.1 to 1 µM
inhibition at 0.1 µM [2]: 74%
EC50 [3]: 0.1 to 1 µM

Structure (SMILES): CS(=O)(=O)c1ccc(C#N)cc1C(=O)Nc1cc(F)cc(F)c1 [Example 5, 5-cyano-N-(3,5-difluorophenyl)-2-(methylsulfonyl) benzamide]
EC50 [1]: 1 to 10 µM
inhibition at 0.1 µM [2]: 40%
EC50 [3]: 0.1 to 1 µM

Structure (SMILES): Cc1cc(NC(=O)c2cc(C#N)ccc2S(C)(=O)=O)cc(C)n1 [Example 19, 5-cyano-N-(2,6-dimethylpyridin-4-yl)-2-(methylsulfonyl) benzamide]
EC50 [1]: > 10 µM
inhibition at 0.1 µM [2]: 20%
EC50 [3]: > 10 µM

Structure (SMILES): CS(=O)(=O)c1ccc(C#N)cc1C(=O)Nc1ccc(F)c(C#N)c1 [Example 17, 5-cyano-N-(3-cyano-4-fluorophenyl)-2-(methylsulfonyl) benzamide]
EC50 [1]: 1 to 10 µM
inhibition at 0.1 µM [2]: 43%
EC50 [3]: 1 to 10 µM

Structure (SMILES): CS(=O)(=O)c1ccc(C#N)cc1C(=O)Nc1ccc2cnccc2c1 [Example 14, 5-cyano-N-(isoquinolin-6-yl)-2-(methylsulfonyl) benzamide]
EC50 [1]: 1 to 10 µM
inhibition at 0.1 µM [2]: 35%
EC50 [3]: 1 to 10 µM

Structure (SMILES): CN1CCN(c2ccc(NC(=O)c3cc(C#N)ccc3S(C)(=O)=O)cn2)CC1 [Example 12, 5-cyano-N-(6-(4-methylpiperazin-1-yl)pyridin-3-yl)-2-(methylsulfonyl) benzamide]
EC50 [1]: > 10 µM
inhibition at 0.1 µM [2]: 25%
EC50 [3]: > 10 µM

Structure (SMILES): N#Cc1ccc(SC(F)(F)F)c(C(=O)Nc2cc(F)cc(F)c2)c1 [Example 6, 5-cyano-N-(3,5-difluorophenyl)-2-(trifluorometh-ylsulfanyl)ben-zamide]
EC50 [1]: 0.1 to 1 µM
inhibition at 0.1 µM [2]: 54%
EC50 [3]: 0.1 to 1 µM

Second part, led by results:

EC50 [1]: 0.1 to 1 µM
EC50 [3]: 0.1 to 1 µM
Structure (SMILES): Cn1cc(-c2c(F)cc(NC(=O)c3cc(C#N)ccc3S(C)(=O)=O)cc2F)cn1 [Example 28, 5-cyano-N-(3,5-difluoro-4-(1-methyl-1H-pyrazol-4-yl)phenyl)-2-(methylsulfonyl) benzamide]
inhibition at 0.1 µM [2]: 72%

EC50 [1]: 0.1 to 1 µM
EC50 [3]: 0.01 to 0.1 µM
Structure (SMILES): Cc1ccc(-c2c(F)cc(NC(=O)c3cc(C#N)ccc3SC(F)(F)F)cc2F)cn1 [Example 3, 5-cyano-N-(3,5-difluoro-4-(6-methylpyridin-3-yl)phenyl)-2-((trifluorometh-yl)thio)benzamide]
inhibition at 0.1 µM [2]: 57%

EC50 [1]: 0.1 to 1 µM
EC50 [3]: 0.1 to 1 µM
Structure (SMILES): CS(=O)(=O)c1ccc(C#N)cc1C(=O)Nc1cc(Cl)cc(Cl)c1 [Example 8, 5-cyano-N-(3,5-dichlorophenyl)-2-(methylsulfonyl) benzamide]
inhibition at 0.1 µM [2]: 41%

EC50 [1]: 0.01 to 0.1 µM
EC50 [3]: 0.01 to 0.1 µM
Structure (SMILES): CS(=O)(=O)c1cnc(C#N)cc1C(=O)Nc1cc(F)cc(F)c1 [Example 31, 2-cyano-N-(3,5-difluorophenyl)-5-(methylsulfonyl)isonicotinamide]
inhibition at 0.1 µM [2]: 72%
